Data taken from the supplement of paper PMC10307832.

Legend:
Experiment in all cases: relative viability (nuclei count vs DMSO), 5 days (fraction); higher = more cells survive
[1] = compound: O=C(c1cc(Cc2n[nH]c(=O)c3ccccc23)ccc1F)N1CCN(C(=O)C2CC2)CC1 [Olaparib] + CC(=O)c1c(C)c2cnc(Nc3ccc(N4CCNCC4)cn3)nc2n(C2CCCC2)c1=O [Palbociclib] (partner 0.5 µM)
Procedure, shortened: (§1)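 Lung cancer cell lines, seeded in 1536-well plates, were treated the following day by pin tool with a single drug or with five library-drug doses (not always all listed) in √10 steps on top of a fixed anchor-drug dose. Cells were fixed and nuclei stained in one step after 5 days, and nuclei were counted. Relative viability is the nuclei count for treated wells divided by that for vehicle wells, reported as medians of duplicate plates.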

[2] = compound: O=C(c1cc(Cc2n[nH]c(=O)c3ccccc23)ccc1F)N1CCN(C(=O)C2CC2)CC1 [Olaparib] + N=C(N)NC(=N)NCCc1ccccc1 [Phenformin] (partner 250 µM)
Procedure, shortened: as §1

[3] = compound: CC(C)C[C@H](NC(=O)[C@H](CCc1ccccc1)NC(=O)CN1CCOCC1)C(=O)N[C@@H](Cc1ccccc1)C(=O)N[C@@H](CC(C)C)C(=O)[C@@]1(C)CO1 [Carfilzomib] + CC(=O)Nc1cccc(-n2c(=O)n(C3CC3)c(=O)c3c(Nc4ccc(I)cc4F)n(C)c(=O)c(C)c32)c1 [Trametinib] (partner 0.02 µM)
Procedure, shortened: as §1

[4] = compound: CC(C)C[C@H](NC(=O)[C@H](CCc1ccccc1)NC(=O)CN1CCOCC1)C(=O)N[C@@H](Cc1ccccc1)C(=O)N[C@@H](CC(C)C)C(=O)[C@@]1(C)CO1 [Carfilzomib] + CS(=O)(=O)CCNCc1ccc(-c2ccc3ncnc(Nc4ccc(OCc5cccc(F)c5)c(Cl)c4)c3c2)o1 [Lapatinib] (partner 2 µM)
Procedure, shortened: as §1

Cell Line	relative viability ([1]; first compound 0.08 µM)	relative viability ([1]; first compound 0.253 µM)	relative viability ([1]; first compound 2.53 µM)	relative viability ([1]; first compound 8 µM)	relative viability ([2]; first compound 0.08 µM)	relative viability ([2]; first compound 0.253 µM)	relative viability ([2]; first compound 2.53 µM)	relative viability ([2]; first compound 8 µM)	relative viability ([3]; first compound 0.001 µM)	relative viability ([3]; first compound 0.003162 µM)	relative viability ([3]; first compound 0.01 µM)	relative viability ([3]; first compound 0.03162 µM)	relative viability ([3]; first compound 0.1 µM)	relative viability ([4]; first compound 0.001 µM)	relative viability ([4]; first compound 0.003162 µM)	relative viability ([4]; first compound 0.01 µM)	relative viability ([4]; first compound 0.03162 µM)	relative viability ([4]; first compound 0.1 µM)
NCI-H322M	0.468	0.408	0.515	0.462	0.937	0.815	0.81	0.635	0.505	0.49	0.487	0.507	0.364	0.477	0.641	0.611	0.651	0.4
NCI-H358	0.124	0.137	0.125	0.14	0.396	0.325	0.351	0.327	0.139	0.136	0.141	0.0944	0.0819	0.377	0.53	0.404	0.177	0.139
NCI-H460	0.0979	0.0831	0.0723	0.0812	0.598	0.44	0.443	0.233	0.116	0.143	0.181	0.13	0.0157	0.954	1.18	0.955	0.0195	0.0166
NCI-H520	0.239	0.207	0.179	0.152	0.645	0.624	0.495	0.385	0.531	0.697	0.598	0.124	0.134	0.89	1.1	0.622	0.148	0.143
NCI-H647	0.431	0.331	0.321	0.381	0.69	0.431	0.518	0.507	0.415	0.529	0.538	0.0767	0.0407	0.974	1.17	0.428	0.0287	0.0319
NCI-H650	0.324	0.312	0.311	0.227	0.541	0.423	0.473	0.429	0.899	1.1	1.08	0.798	0.169	0.61	1.33	1.04	0.361	0.18
NCI-H661	0.384	0.383	0.389	0.362	0.219	0.278	0.273	0.253	0.642	0.635	0.599	0.526	0.276	0.548	0.836	0.533	0.507	0.191
NCI-H727	0.655	0.601	0.618	0.561	0.634	0.662	0.556	0.396	0.428	0.376	0.46	0.41	0.312	0.72	0.855	0.61	0.398	0.12
NCI-H838	0.269	0.196	0.198	0.247	0.569	0.589	0.641	0.589	0.517	0.575	0.614	0.215	0.0888	0.889	1.33	1.05	0.2	0.119
NCI-H1355	0.364	0.422	0.407	0.414	0.478	0.433	0.47	0.432	0.42	0.469	0.422	0.44	0.139	0.872	1.08	1.08	0.941	0.168
NCI-H1395	0.649	0.611	0.6	0.499	0.419	0.4	0.423	0.396		0.997	1.11	0.566	0.344	0.897	1.55	0.841	0.318	0.311
NCI-H1437	0.32	0.303	0.327	0.353	0.301	0.27	0.279	0.296	0.497	0.568	0.637	0.312	0.194	0.78	0.931	0.832	0.431	0.139
NCI-H1650	0.478	0.324	0.331	0.335	0.446	0.475	0.405	0.537	0.487	0.537	0.52	0.103	0.1		0.781	0.264	0.165	0.154
NCI-H1651	0.547	0.494	0.493	0.384	0.365	0.326	0.234	0.195	0.79	0.9	0.794	0.304	0.119	0.696	0.742	0.16	0.113	0.101
NCI-H1666	0.669	0.717	0.677	0.609	0.575	0.545	0.502	0.523	0.907	0.852	0.988	0.72	0.513	0.611	0.755	0.747	0.407	0.193
NCI-H1734	0.337	0.327	0.29	0.304	0.46	0.325	0.35	0.372	0.67	0.785	0.627	0.641	0.152	1.03	1.11	1.02	0.317	0.203
NCI-H1755	0.415	0.436	0.445	0.436	0.62	0.593	0.592	0.575	0.809	0.837	0.668	0.769	0.511	1.05	1.12	1.02	0.922	0.279
NCI-H1792	0.694	0.576	0.63	0.617	0.284	0.224	0.273	0.194		0.456	0.451	0.396	0.174	0.794	0.896	0.939	0.985	0.697
